From patent US10307413B2, “Tetrahydro- and dihydro-isoquinoline PRMT5 inhibitors and uses thereof” (Epizyme, Inc., priority 2013, dated 2019)

Legend:
PRMT5/MEP50 = PRMT5/MEP50 (Homo sapiens (Human), UniProt O14744); assay: PRMT5 Biochemical Assay (PRMT5/MEP50 enzyme assay on peptide substrate, 3H-SAM Flashplate); conditions: PRMT5 biochemical assay
Method in brief: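 Radiometric methylation of a biotin-tagged H4(1-15) peptide by human PRMT5/MEP50 from baculovirus/Sf9, with ³H-SAM incorporation read on streptavidin Flashplates. Buffer: Bicine pH 7.6, TCEP, BSG, Tween20; compound preincubated 30 min at 25 °C; stopped with 600 µM final unlabeled SAM. DMSO and SAH controls; IC50 from fitted % inhibition.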

[1] = tested on: symmetric di-methyl arginine in Z-138 cells; assay: Z-138 Methylation Assay (In Cell Western for symmetric di-methyl arginine and DNA content); format: cell-based; conditions: Homo sapiens, In Cell Western methylation, read-out: ICW EC50
Method in brief: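 In-cell western: symmetric di-methyl arginine signal ratioed to DRAQ5 DNA content after 96 h compound exposure of Z-138 cells seeded at 50,000 cells/mL.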

Z-138 cell line = assay: Z-138 Proliferation Assay (Cell Titer Glo, 5 days); format: cell-based; conditions: Homo sapiens, 120 h; Z-138 cells, 5 days, Cell Titer Glo; read-out: Proliferation EC50
Method in brief: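 Viability via CellTiter-Glo luminescence (ATP) after 5-day incubation at 37 °C, 5% CO2. Compounds tested in triplicate, nine 3-fold steps, highest final concentration 20 μM in 0.2% DMSO; 50% inhibitory concentration by 4-parameter fit of normalized curves.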

Chain of PRMT5/MEP50 (O14744 other isoform, or with tags, fused parts or gaps): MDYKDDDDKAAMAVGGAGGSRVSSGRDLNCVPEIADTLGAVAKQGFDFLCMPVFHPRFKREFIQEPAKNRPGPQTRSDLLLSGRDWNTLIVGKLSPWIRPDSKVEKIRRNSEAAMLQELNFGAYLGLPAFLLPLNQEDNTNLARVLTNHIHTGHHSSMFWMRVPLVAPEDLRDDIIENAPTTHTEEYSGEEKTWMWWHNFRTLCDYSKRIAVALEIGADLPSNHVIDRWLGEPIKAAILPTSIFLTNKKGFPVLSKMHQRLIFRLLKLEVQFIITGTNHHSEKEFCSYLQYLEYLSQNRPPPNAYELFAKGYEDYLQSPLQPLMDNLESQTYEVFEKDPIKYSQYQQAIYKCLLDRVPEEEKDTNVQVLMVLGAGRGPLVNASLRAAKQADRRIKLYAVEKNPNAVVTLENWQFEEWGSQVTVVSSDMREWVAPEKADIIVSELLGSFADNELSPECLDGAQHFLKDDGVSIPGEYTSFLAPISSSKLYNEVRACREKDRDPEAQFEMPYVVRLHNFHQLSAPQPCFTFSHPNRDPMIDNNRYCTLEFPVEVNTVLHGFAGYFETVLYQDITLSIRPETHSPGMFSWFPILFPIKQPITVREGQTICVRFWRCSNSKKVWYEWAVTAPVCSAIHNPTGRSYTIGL
Chain of PRMT5/MEP50 (Q9BQA1 other isoform, or with tags, fused parts or gaps partner): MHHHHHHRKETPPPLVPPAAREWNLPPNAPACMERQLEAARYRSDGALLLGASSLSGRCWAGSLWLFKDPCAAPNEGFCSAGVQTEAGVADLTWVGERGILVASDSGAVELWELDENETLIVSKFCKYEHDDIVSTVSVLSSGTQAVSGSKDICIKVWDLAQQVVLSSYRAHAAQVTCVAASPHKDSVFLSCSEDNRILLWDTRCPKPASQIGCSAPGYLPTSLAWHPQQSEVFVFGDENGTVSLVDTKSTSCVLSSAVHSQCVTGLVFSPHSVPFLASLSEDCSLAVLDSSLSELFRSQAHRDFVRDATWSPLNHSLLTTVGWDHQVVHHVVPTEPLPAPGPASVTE

Row | Structure (SMILES) | IC50 (PRMT5/MEP50) | EC50 [1] | EC50 (Z-138 cell line)
1 | O=C(NC[C@H](O)CN1CCc2ccccc2C1)c1cc(NC2COC2)nc(N2CCCC2)n1 [Compound 451] | < 100 nM | < 100 nM | 101 to 1000 nM
2 | CCc1nc(NC2COC2)cc(C(=O)NC[C@H](O)CN2CCc3ccccc3C2)n1 [Compound 452] | < 100 nM | < 100 nM | 101 to 1000 nM
3 | O=C(NC[C@H](O)CN1CCc2ccccc2C1)c1cc(NC2CNC2)nc(N2CCNCC2)n1 [Compound 453] | < 100 nM | > 1000 nM | > 20000 nM
4 | O=C(NC[C@H](O)CN1CCc2ccccc2C1)c1cc(NC2CNC2)nc(C(F)(F)F)n1 [Compound 456] | < 100 nM | 101 to 1000 nM | 101 to 1000 nM
5 | CC(=O)N1CC(Nc2cc(C(=O)NC[C@H](O)CN3CCc4ccccc4C3)nc(C(C)C)n2)C1 [Compound 457] | < 100 nM | < 100 nM | < 100 nM
6 | CCN(C)c1nc(NC2COC2)cc(C(=O)NC[C@H](O)CN2CCc3ccccc3C2)n1 [Compound 458] | < 100 nM | < 100 nM | < 100 nM
7 | CCCN(C)c1nc(NC2COC2)cc(C(=O)NC[C@H](O)CN2CCc3ccccc3C2)n1 [Compound 459] | < 100 nM | < 100 nM | < 100 nM
8 | COCCN(C)c1nc(NC2COC2)cc(C(=O)NC[C@H](O)CN2CCc3ccccc3C2)n1 [Compound 460] | < 100 nM | < 100 nM | < 100 nM
9 | O=C(NC[C@H](O)CN1CCc2ccccc2C1)c1cc(NC2COC2)nc(N2CCNCC2)n1 [Compound 461] | < 100 nM | < 100 nM | < 100 nM
10 | CCC(=O)N1CCN(c2nc(NC3COC3)cc(C(=O)NC[C@H](O)CN3CCc4ccccc4C3)n2)CC1 [Compound 462] | < 100 nM | < 100 nM | < 100 nM
11 | CC(C)C(=O)N1CCN(c2nc(NC3COC3)cc(C(=O)NC[C@H](O)CN3CCc4ccccc4C3)n2)CC1 [Compound 463] | < 100 nM | < 100 nM | < 100 nM
12 | CC(C)Cc1nc(NC2COC2)cc(C(=O)NC[C@H](O)CN2CCc3ccccc3C2)n1 [Compound 464] | < 100 nM | < 100 nM | < 100 nM
13 | COc1nc(NC2COC2)cc(C(=O)NC[C@H](O)CN2CCc3ccccc3C2)n1 [Compound 465] | < 100 nM | < 100 nM | 101 to 1000 nM
14 | CCN1CCN(c2nc(NC3CNC3)cc(C(=O)NC[C@H](O)CN3CCc4ccccc4C3)n2)CC1 [Compound 466] | < 100 nM | 101 to 1000 nM | 1000 to 10000 nM
15 | CC(C)Oc1nc(NC2CNC2)cc(C(=O)NC[C@H](O)CN2CCc3ccccc3C2)n1 [Compound 467] | < 100 nM | 101 to 1000 nM | 101 to 1000 nM
16 | CCCC(=O)N1CCC(Nc2cc(C(=O)NC[C@H](O)CN3CCc4ccccc4C3)ccn2)CC1 [Compound 468] | < 100 nM | < 100 nM | < 100 nM
17 | CC(C)C(=O)N1CCC(Nc2cc(C(=O)NC[C@H](O)CN3CCc4ccccc4C3)ccn2)CC1 [Compound 469] | < 100 nM | < 100 nM | < 100 nM
18 | CC(C)(C)C(=O)N1CCC(Nc2cc(C(=O)NC[C@H](O)CN3CCc4ccccc4C3)ccn2)CC1 [Compound 470] | < 100 nM | < 100 nM | < 100 nM
19 | CC(C)CC(=O)N1CCC(Nc2cc(C(=O)NC[C@H](O)CN3CCc4ccccc4C3)ccn2)CC1 [Compound 471] | < 100 nM | < 100 nM | < 100 nM
20 | O=C(NC[C@H](O)CN1CCc2ccccc2C1)c1ccnc(NC2CCN(C(=O)C3CC3)CC2)c1 [Compound 472] | < 100 nM | < 100 nM | < 100 nM
21 | O=C(NC[C@H](O)CN1CCc2ccccc2C1)C1=CC2=NC(CO)CN2C=N1 (stereo partly drawn) [Compound 473] | 101 to 1000 nM | > 1000 nM | > 20000 nM

Row | Structure (SMILES) | IC50 (PRMT5/MEP50) | EC50 [1] | EC50 (Z-138 cell line)
22 | CC(=O)N1CC(Nc2cc(C(=O)NC[C@H](O)CN3CCc4ccccc4C3)nc(C(F)(F)F)n2)C1 [Compound 474] | < 100 nM | < 100 nM | 101 to 1000 nM
23 | CC(=O)N1CC(Oc2cc(C(=O)NC[C@H](O)CN3CCc4ccccc4C3)ncn2)C1 [Compound 475] | < 100 nM | < 100 nM | 101 to 1000 nM
24 | CNCCN(C)c1nc(NC2COC2)cc(C(=O)NC[C@H](O)CN2CCc3ccccc3C2)n1 [Compound 476] | < 100 nM | < 100 nM | 101 to 1000 nM
25 | CCN1CCN(c2nc(NC3COC3)cc(C(=O)NC[C@H](O)CN3CCc4ccccc4C3)n2)CC1 [Compound 477] | < 100 nM | < 100 nM | < 100 nM
26 | CC(C)N1CCN(c2nc(NC3COC3)cc(C(=O)NC[C@H](O)CN3CCc4ccccc4C3)n2)CC1 [Compound 478] | < 100 nM | < 100 nM | < 100 nM
27 | O=C(NC[C@H](O)CN1CCc2ccccc2C1)c1cc(NC2COC2)nc(C2CC2)n1 [Compound 480] | < 100 nM | < 100 nM | 101 to 1000 nM
28 | CN(CCN)c1nc(NC2CNC2)cc(C(=O)NC[C@H](O)CN2CCc3ccccc3C2)n1 [Compound 481] | < 100 nM | 101 to 1000 nM | 1000 to 10000 nM
29 | CNCCN(C)c1nc(NC2CNC2)cc(C(=O)NC[C@H](O)CN2CCc3ccccc3C2)n1 [Compound 482] | < 100 nM | 101 to 1000 nM | 1000 to 10000 nM
30 | CC(=O)N1CCN(c2nc(NC3CNC3)cc(C(=O)NC[C@H](O)CN3CCc4ccccc4C3)n2)CC1 [Compound 483] | < 100 nM | < 100 nM | 1000 to 10000 nM
31 | CCC(=O)N1CCN(c2nc(NC3CNC3)cc(C(=O)NC[C@H](O)CN3CCc4ccccc4C3)n2)CC1 [Compound 484] | < 100 nM | < 100 nM | 1000 to 10000 nM
32 | O=C(NC[C@H](O)CN1CCc2ccccc2C1)c1cc(NC2CNC2)nc(N2CCN(C(=O)C3CC3)CC2)n1 [Compound 485] | < 100 nM | 101 to 1000 nM | 1000 to 10000 nM
33 | CCOc1nc(NC2CNC2)cc(C(=O)NC[C@H](O)CN2CCc3ccccc3C2)n1 [Compound 486] | < 100 nM | 101 to 1000 nM | 1000 to 10000 nM
34 | CCc1nc(NC2CNC2)cc(C(=O)NC[C@H](O)CN2CCc3ccccc3C2)n1 [Compound 487] | < 100 nM | 101 to 1000 nM | 1000 to 10000 nM
35 | CCC(=O)N1CC(Nc2cc(C(=O)NC[C@H](O)CN3CCc4ccccc4C3)ccn2)C1 [Compound 488] | < 100 nM | < 100 nM | < 100 nM
36 | CC(C)C(=O)N1CC(Nc2cc(C(=O)NC[C@H](O)CN3CCc4ccccc4C3)ccn2)C1 [Compound 489] | < 100 nM | < 100 nM | < 100 nM
37 | O=C(NC[C@H](O)CN1CCc2ccccc2C1)c1ccnc(NC2CN(C(=O)C3CC3)C2)c1 [Compound 490] | < 100 nM | < 100 nM | < 100 nM
38 | O=C(NC[C@H](O)CN1CCc2ccccc2C1)c1cc(N[C@H]2C[C@@H](O)C2)ncn1 [Compound 491] | < 100 nM | < 100 nM | 101 to 1000 nM
39 | CC(NC(=O)c1cc(NC2COC2)ncn1)[C@@H](O)CN1CCc2ccccc2C1 (stereo partly drawn) [Compound 492] | < 100 nM | < 100 nM | 1000 to 10000 nM
40 | CN(C)c1nc(NC2COC2)cc(C(=O)NC[C@H](O)CN2CCc3ccccc3C2)n1 [Compound 494] | < 100 nM | < 100 nM | 101 to 1000 nM
41 | CN(CCO)c1nc(NC2COC2)cc(C(=O)NC[C@H](O)CN2CCc3ccccc3C2)n1 [Compound 495] | < 100 nM | < 100 nM | 101 to 1000 nM
42 | COCCN1CCN(c2nc(NC3COC3)cc(C(=O)NC[C@H](O)CN3CCc4ccccc4C3)n2)CC1 [Compound 496] | < 100 nM | < 100 nM | < 100 nM
